Columns and labels:
panel of 442 kinases [1] = molecular target: T1, panel of 442 kinases (Homo sapiens, UniProt O15197); type: binding; conditions: Compound Concentration 10 µM
T1 construct: purchased KINOMEscan
T1 sequence (O15197 32-1021): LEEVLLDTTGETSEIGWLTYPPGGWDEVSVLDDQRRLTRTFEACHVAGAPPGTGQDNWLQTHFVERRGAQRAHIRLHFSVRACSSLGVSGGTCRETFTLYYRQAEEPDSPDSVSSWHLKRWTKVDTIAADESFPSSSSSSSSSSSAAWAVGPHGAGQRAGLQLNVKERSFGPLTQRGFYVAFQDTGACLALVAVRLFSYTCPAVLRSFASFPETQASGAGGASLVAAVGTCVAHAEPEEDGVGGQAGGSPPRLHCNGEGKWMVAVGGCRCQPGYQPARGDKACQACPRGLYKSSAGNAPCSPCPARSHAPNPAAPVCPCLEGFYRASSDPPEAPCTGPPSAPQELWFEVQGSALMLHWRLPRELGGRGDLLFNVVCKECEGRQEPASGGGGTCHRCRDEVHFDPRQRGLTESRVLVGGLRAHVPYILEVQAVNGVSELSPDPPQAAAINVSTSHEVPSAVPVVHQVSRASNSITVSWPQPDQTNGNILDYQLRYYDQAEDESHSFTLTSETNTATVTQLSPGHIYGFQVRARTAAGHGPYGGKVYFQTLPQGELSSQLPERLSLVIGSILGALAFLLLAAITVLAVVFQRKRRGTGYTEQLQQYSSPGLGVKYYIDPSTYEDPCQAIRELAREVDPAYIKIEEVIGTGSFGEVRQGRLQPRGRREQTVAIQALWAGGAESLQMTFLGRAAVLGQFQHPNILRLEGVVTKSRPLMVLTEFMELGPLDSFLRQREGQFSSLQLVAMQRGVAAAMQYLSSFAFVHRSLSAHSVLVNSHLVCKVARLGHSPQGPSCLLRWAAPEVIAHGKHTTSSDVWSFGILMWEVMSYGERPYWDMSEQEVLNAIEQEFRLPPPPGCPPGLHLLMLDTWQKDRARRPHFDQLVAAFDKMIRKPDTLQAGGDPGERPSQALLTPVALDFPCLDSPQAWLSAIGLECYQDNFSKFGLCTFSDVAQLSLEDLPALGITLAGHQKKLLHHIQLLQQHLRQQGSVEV
Source text: (§1) We assessed the selectivity of members of this scaffold using the KINOMEscan methodology across a near comprehensive panel of 442 kinases [[18,27]].

panel of 442 kinases [2] = molecular target: T2, panel of 442 kinases (Homo sapiens, UniProt P41743); type: binding; conditions: Compound Concentration 10 µM
T2 construct: purchased KINOMEscan
T2 sequence (P41743 1-596): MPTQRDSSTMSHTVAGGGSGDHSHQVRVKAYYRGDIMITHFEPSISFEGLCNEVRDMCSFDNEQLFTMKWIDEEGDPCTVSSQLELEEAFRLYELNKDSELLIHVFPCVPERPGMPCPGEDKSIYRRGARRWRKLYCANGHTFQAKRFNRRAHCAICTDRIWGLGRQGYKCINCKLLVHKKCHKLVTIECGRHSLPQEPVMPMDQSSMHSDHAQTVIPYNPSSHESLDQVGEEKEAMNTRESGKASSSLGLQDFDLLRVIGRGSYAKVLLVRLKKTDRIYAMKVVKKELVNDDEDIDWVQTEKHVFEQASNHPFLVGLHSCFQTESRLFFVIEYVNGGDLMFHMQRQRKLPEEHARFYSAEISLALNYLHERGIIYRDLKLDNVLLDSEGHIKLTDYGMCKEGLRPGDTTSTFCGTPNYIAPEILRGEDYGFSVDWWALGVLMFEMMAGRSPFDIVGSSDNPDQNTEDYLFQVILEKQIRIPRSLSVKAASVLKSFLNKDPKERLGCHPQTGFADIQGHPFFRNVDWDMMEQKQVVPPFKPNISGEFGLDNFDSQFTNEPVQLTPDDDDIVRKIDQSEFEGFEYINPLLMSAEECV
Source text: as §1

Structure (SMILES) | KINOMEscan: EPHB6 (panel of 442 kinases [1]) | KINOMEscan: PRKCI (panel of 442 kinases [2])
CCOc1cc(C(=O)N2CCC(N3CCN(C)CC3)CC2)ccc1Nc1ncc2c(n1)N(C1CCCC1)c1ccccc1C(=O)N2C [Compound 26] | 100 | 95
COc1cc(C(=O)N2CCC(N3CCN(C)CC3)CC2)ccc1Nc1ncc2c(n1)N(C1CCCC1)c1ccccc1C(=O)N2C [Compound 25, 11-cyclopentyl-2-((2-methoxy-4-(4-(4-methylpiperazin-1-yl)piperidine-1-carbonyl)phenyl)amino)-5-methyl-5H-benzo[e]pyrimido[5,4-b][1,4]diazepin-6(11H)-one] | 69 | 100
COc1cc(C(=O)N2CCC(N3CCN(C)CC3)CC2)ccc1Nc1ncc2c(n1)N1CCc3cccc(c31)C(=O)N2C [Compound 24] | 68 | 
COc1cc(C(=O)N2CCC(N3CCN(C)CC3)CC2)ccc1Nc1ncc2c(n1)N(C)c1ccccc1C(=O)N2C [15 (LRRK2-IN-1)] | 31 | 100
